Assays:
primary human MPCs = assay: Mineralization assay (Alizarin RedS / Von Kossa); format: cell-based; settings: MPCs with NR1H3 and T0901317
Description: On day one, primary human MPCs are seeded in a 6 well plate (Costar or Nunc) at a density of 50,000 to 250,000 cells per well, typically at 100,000 cells per well. MPCs are co-infected one day later with AdC15-hCAR (MOI 750) and Ad-control (eGFP or BMP2) or hit-virus (Ad5) (at MOIs between 250 and 20,000, typically at MOIs 5000 and 2500). For Ad-GPCR or Ad-NHR experiments, cells can additionally be treated with specific ligands. These are added at the EC50 concentration and at concentrations 5-10 times higher and lower. Ligands are added 2-3 times per week. Medium supplemented with 100 μg/ml L-ascorbate and 10 mM beta-glycerophosphate, is refreshed 2 times a week. 20 to 30 days after the start of the experiment, cells are stained with Von Kossa stain or with Alizarin RedS stain.
The Alizarin RedS staining is carried out as follows: cells are washed once with PBS, fixed with 10% paraformaldehyde for 45 minutes at 4° C., and washed 2 times with PBS. Cells are incubated with 40 mM aqueous Alizarin RedS solution, pH 4.1-4.3 for 10 minutes followed by 5 washes with distilled water. Staining is evaluated and photographed using white light.

[1] = tested on: calvarial skull bones (hemicalvaria); assay: Calvarial skull assay (bone organ culture); format: cell-based, CD1 mice
Description: CD1 pups are harvested around birth from CD1 female mice (received from Janvier (Le Genest St Isle, France) when they were 11 days pregnant). Pups are decapitated and the calvarial skull is dissected and split into 2 hemicalvaria. Hemicalvaria are blotted using sterile gauze, weighed and cultured in 24 well plates (MEMalpha or BGJb-Fitton-Jackson medium containing 50 μg/ml L-ascorbic acid (Sigma, A-4034), 5 mM β-glycerophosphate (Sigma, G-9891) and Penicillin-Streptomycin (Invitrogen Cat # 15140-122)). Small molecules (ligands, agonists, antagonists) are tested in at least three-fold at a minimum of 3 concentrations. Each small molecule is added to the medium on day 0 and added again when refreshing the medium (every 2-3 days). Three to 16 days after the start of the experiment, skulls are weighed again after blotting them dry using sterile gauze. The weight difference is calculated, expressed as percent weight change and the mean and standard deviations (SD) are calculated for the triplicate measurements. Data are analyzed using the Student's t-test.
The formation of new osteoid is analyzed histologically as follows: hemicalvaria are fixed in 10% buffered formalin for at least 2 days, decalcified in 10% EDTA overnight, processed through graded alcohols and embedded in paraffin wax. Three to 10 μm sections are prepared of the calvaria and stained with hematoxylin and eosin (H&E). Healthy cells, dead cells, old and new bone, and collagen are identified by their distinctive morphology and colouring observed after H&E staining. The surfaces taken by these are measured stereologically (μm^2 readout) and termed Osteoblast area, Debris area, Native and New bone area, Collagen area and Total area (sum of the previous 5 areas), respectively. In addition, the thickness (μm readout) is measured at 8 positions, evenly spaced over the section.
The histological readout of the calvarial skull assay is developed using known osteogenic agents. Hemicalvaria were treated with recombinant human parathyroid hormone (rhPTH).
T0901317 is added to the culture medium of the dissected hemicalvaria at the day of dissection at several doses (19.5, 78.1 and 313 nM), in fourfold. The concentration of the solvent (vehicle), DMSO, is fixed at a final concentration of 0.05%. The medium, containing T0901317 or vehicle control is refreshed every 2-3 days. Hemicalvaria are harvested 7 days after the initiation of the experiment and subjected to the histological analysis described above.

[2] = 19.5, 78.1 and 313 nM, 7 days, histology (H&E)

Q: Which results are given for `O=S(=O)(c1ccccc1)N(CC(F)(F)F)c1ccc(C(O)(C(F)(F)F)C(F)(F)F)cc1` [T0901317, N-(2,2,2-trifluoroethyl)-N-[4-[2,2,2-trifluoro-1-hydroxy-1-(trifluoromethyl)ethyl]phenyl]-benzenesulfonamide]?
A: mineralization (primary human MPCs): score well; dose-response activity towards areas of osteoblast ([1]; 19.5, 78.1 and 313 nM, 7 days): Dose-response activity of the compound is observed; dose-response activity towards thickness ([1]; 19.5, 78.1 and 313 nM, 7 days): Dose-response activity of the compound is observed; dose-response activity towards total area (sum of all areas measured) ([1]; 19.5, 78.1 and 313 nM, 7 days): Dose-response activity of the compound is observed; areas of collagen [1, 2]: Statistically significant increases; areas of new bone [1, 2]: Statistically significant increases; areas of osteoblast [1, 2]: Statistically significant increases; weight increases in calvarial skull explants ([1]; FIG. 18): Weight increases

From patent publication US20060020036A1, “Methods and compositions to promote bone homestasis” (priority 2004, published 2006)
